The target in assay [1] is T1, smooth muscle myocyte BK channels (C57BL/6) (Mus musculus, UniProt Q8CAE3).
T1 construct: endogenous in cells; host or cells: freshly isolated mouse middle cerebral artery smooth muscle cells, inside-out patches
The assay is described as follows: Inside-out patch-clamp of MCA smooth muscle myocytes, wt mice. The class given is cell-based. How it is done: Ionic currents were recorded from excised, inside-out (I/O) patches. […] In all experiments, free [Ca^2+] in solution was adjusted to the desired value by adding the appropriate amount of Ca^2+ from a 1 mM CaCl2 stock. An agar bridge with Cl^- as main anion was used as ground electrode. Solutions were applied onto the cytosolic side of I/O patches using an automated, pressurized system (Octaflow; […] Ionic currents at single channel resolution were recorded using an EPC8 amplifier (HEKA) at 1 kHz. Data were digitized at 5 kHz using a Digidata […] A/D converter and pCLAMP 8.0 (Molecular Devices); n = 5/group. […] Drug-induced NPo changes were determined by comparing baseline NPo (i.e., NPo with the patch/cell perfused with bath solution) to the NPo from the same patch/cell exposed to the agent under study (DMSO/PROG/oxime) dissolved in bath solution.
(In general: The patch-clamp technique gives a direct electrical read-out from membranes.)

Another assay concerns the target T2, cbv1+β1Y32F (Rattus norvegicus, UniProt P97678, Y32F).
T2 construct: made in house; host or cells: CHO cells, transient transfection; sucrose-gradient membrane preparation
The assay can be described thus: Channel activity (NPo) in POPE/POPS bilayers, cbv1+β1Y32F. Format: biochemical. The text has this:
(§1) BK channel-forming slo1 cDNA (cbv1 isoform; AY330293) was cloned from rat cerebral artery SM cells, and inserted into pcDNA3.1 vector as described. BK β1 cDNA (KCNMB1 product; NP_011452; FJ154955) were isolated from rat cerebral artery SM cells and cloned as described. β4 cDNA (KCNMB4; NP_055320; AY028605) were generously provided by Dr. Ligia Toro. CHO cells were transiently transfected with cbv1 ± β1-, or β4-carrying pcDNA3.1 using X-tremeGENE HP (Sigma-Aldrich). […]
(§2) Proteins for electrophysiological recordings in artificial lipid bilayers remained untagged. […] BK channel-mediated ionic current was recorded in planar lipid bilayers consisting of a POPE:POPS 3:1 (w/w) mixture. […]
(§3) Patch-clamp and bilayer data were analyzed using Clampfit 10.7 software (Molecular Devices). […] Drug-induced NPo changes were determined by comparing baseline NPo (i.e., NPo with the patch/cell perfused with bath solution) to the NPo from the same patch/cell exposed to the agent under study (DMSO/PROG/oxime) dissolved in bath solution. NPo and mean open time values were automatically calculated using Clampfit 10.7, the latter using a 50% threshold detection event.

In another assay the target is T3, β1Y42V (Rattus norvegicus, UniProt P97678, Y42V).
T3 construct: FLAG (DYKDDDDK); made in house; host or cells: CHO cells, transient transfection, anti-flag immunoprecipitation
T3 sequence (P97678 whole entry Y42V): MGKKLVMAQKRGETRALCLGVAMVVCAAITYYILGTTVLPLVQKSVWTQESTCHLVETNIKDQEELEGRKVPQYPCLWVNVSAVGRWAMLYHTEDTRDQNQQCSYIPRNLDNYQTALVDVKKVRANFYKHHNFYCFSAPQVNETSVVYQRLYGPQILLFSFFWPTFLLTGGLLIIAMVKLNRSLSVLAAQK
The assay can be described thus: Thermal unfolding (MST) of β1Y42V. The class given is binding. The text has this: (§4) BK channel-forming slo1 cDNA (cbv1 isoform; AY330293) was cloned from rat cerebral artery SM cells, and inserted into pcDNA3.1 vector as described. BK β1 cDNA (KCNMB1 product; NP_011452; FJ154955) were isolated from rat cerebral artery SM cells and cloned as described. β4 cDNA (KCNMB4; NP_055320; AY028605) were generously provided by Dr. Ligia Toro. CHO cells were transiently transfected with cbv1 ± β1-, or β4-carrying pcDNA3.1 using X-tremeGENE HP (Sigma-Aldrich). Mutations to β1/4 cDNAs were conducted by Genscript, with sequences being confirmed to be >99% identical to KCNMB1 product; NP_011452 or β4 KCNMB4; NP_055320; respectively. β1/4 and mutant constructs were flag-tagged (DYKDDDDK-tag) by Genscript services for subsequent immunoprecipitation and use in microscale thermophoresis studies.
(§5) Wt β1, wt β4 and mutant constructs were purified by immunoprecipitation using Dynabeads Protein G Kit (10007D by Invitrogen) and following the manufacturer’s instructions. […] The unfolding profile of a protein is a plot of its fluorescence signal against temperature. […] During the heating process, fluorescence is recorded at 330 and 350 nm. The resulting fluorescence ratio change is then analyzed for onset and inflection points. The temperature of onset and inflection is determined using built-in analysis function in Nanotemper PR.therm-control software. […]

For the next assay, the target named is T4, cbv1+β1Y42V (Rattus norvegicus, UniProt P97678, Y42V).
T4 construct: made in house; host or cells: CHO cells, transient transfection; sucrose-gradient membrane preparation
T4 sequence (P97678 whole entry Y42V): as above
T4 sequence (Q62976 1-1148 isoform Q62976-2 partner): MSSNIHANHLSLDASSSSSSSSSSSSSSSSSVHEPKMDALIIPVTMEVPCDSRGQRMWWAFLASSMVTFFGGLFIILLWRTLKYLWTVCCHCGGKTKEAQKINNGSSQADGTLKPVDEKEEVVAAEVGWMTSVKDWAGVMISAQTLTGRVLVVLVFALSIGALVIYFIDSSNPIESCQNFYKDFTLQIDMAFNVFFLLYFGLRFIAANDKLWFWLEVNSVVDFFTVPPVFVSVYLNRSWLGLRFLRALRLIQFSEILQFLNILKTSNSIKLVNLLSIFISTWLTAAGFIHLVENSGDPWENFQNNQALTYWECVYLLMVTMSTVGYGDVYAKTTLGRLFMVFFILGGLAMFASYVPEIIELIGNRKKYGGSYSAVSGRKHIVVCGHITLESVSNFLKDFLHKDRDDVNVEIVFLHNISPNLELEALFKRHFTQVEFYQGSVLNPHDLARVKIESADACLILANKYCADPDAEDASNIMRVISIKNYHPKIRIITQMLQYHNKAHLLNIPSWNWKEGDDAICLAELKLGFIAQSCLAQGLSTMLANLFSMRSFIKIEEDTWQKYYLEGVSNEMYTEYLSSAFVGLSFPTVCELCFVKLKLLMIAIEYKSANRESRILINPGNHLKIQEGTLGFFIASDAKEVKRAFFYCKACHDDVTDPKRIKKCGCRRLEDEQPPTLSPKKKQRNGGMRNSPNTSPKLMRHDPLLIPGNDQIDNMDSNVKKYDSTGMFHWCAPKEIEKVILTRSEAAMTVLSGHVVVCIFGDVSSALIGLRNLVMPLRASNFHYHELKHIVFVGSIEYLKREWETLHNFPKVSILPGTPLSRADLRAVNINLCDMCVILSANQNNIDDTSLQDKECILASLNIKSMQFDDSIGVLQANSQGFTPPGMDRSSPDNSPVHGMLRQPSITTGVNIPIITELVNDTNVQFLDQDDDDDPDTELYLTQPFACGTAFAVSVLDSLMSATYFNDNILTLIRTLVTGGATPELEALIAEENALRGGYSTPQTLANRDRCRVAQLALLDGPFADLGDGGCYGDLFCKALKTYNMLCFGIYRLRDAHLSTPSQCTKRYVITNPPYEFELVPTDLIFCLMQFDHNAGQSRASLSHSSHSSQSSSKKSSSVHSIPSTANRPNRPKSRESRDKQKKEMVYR
The assay is described as follows: Channel activity (NPo) in POPE/POPS bilayers, cbv1+β1Y42V. The class given is biochemical.
Description: as §1, §2, §3

Assay [2] deals with T5, β1Y32V,W163I (double mutant) (Rattus norvegicus, UniProt P97678, W163I/Y32V).
T5 construct: FLAG (DYKDDDDK); made in house; host or cells: CHO cells, transient transfection, anti-flag immunoprecipitation
T5 sequence (P97678 whole entry Y32V/W163I): as the sequence (P97678 whole entry Y42V) above, with Y32V, V42Y, W163I counted along it
The assay is described as follows: Thermal unfolding (MST) of β1 double mutant. Format: binding.
Description: as §4, §5

The target of the next assay is T6, β1W87F (Rattus norvegicus, UniProt P97678, W87F).
T6 construct: FLAG (DYKDDDDK); made in house; host or cells: CHO cells, transient transfection, anti-flag immunoprecipitation
T6 sequence (P97678 whole entry W87F): as the sequence (P97678 whole entry Y42V) above, with V42Y, W87F counted along it
The assay can be described thus: Thermal unfolding (MST) of β1W87F. The class given is binding. The conditions noted are these: 0.004 and 4.1 µM.
Description: as §4, §5

Each structure is given as a SMILES string. Values joined by “and” are separate entries in the source; they are usually repeats but may differ in a detail not shown here. Equal entries are not always repeated.

T2 sequence (P97678 whole entry Y32F): as the sequence (P97678 whole entry Y42V) above, with Y32F, V42Y counted along it
T2 sequence (Q62976 1-1148 isoform Q62976-2 partner): as the sequence (Q62976 1-1148 isoform Q62976-2 partner) above
T1 sequence (Q8CAE3 whole entry): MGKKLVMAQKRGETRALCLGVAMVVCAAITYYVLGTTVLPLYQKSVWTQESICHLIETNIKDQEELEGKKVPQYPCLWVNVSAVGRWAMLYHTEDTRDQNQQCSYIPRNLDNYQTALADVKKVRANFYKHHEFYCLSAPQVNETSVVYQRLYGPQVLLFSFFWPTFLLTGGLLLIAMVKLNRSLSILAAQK
T1 sequence (Q08460 whole entry partner): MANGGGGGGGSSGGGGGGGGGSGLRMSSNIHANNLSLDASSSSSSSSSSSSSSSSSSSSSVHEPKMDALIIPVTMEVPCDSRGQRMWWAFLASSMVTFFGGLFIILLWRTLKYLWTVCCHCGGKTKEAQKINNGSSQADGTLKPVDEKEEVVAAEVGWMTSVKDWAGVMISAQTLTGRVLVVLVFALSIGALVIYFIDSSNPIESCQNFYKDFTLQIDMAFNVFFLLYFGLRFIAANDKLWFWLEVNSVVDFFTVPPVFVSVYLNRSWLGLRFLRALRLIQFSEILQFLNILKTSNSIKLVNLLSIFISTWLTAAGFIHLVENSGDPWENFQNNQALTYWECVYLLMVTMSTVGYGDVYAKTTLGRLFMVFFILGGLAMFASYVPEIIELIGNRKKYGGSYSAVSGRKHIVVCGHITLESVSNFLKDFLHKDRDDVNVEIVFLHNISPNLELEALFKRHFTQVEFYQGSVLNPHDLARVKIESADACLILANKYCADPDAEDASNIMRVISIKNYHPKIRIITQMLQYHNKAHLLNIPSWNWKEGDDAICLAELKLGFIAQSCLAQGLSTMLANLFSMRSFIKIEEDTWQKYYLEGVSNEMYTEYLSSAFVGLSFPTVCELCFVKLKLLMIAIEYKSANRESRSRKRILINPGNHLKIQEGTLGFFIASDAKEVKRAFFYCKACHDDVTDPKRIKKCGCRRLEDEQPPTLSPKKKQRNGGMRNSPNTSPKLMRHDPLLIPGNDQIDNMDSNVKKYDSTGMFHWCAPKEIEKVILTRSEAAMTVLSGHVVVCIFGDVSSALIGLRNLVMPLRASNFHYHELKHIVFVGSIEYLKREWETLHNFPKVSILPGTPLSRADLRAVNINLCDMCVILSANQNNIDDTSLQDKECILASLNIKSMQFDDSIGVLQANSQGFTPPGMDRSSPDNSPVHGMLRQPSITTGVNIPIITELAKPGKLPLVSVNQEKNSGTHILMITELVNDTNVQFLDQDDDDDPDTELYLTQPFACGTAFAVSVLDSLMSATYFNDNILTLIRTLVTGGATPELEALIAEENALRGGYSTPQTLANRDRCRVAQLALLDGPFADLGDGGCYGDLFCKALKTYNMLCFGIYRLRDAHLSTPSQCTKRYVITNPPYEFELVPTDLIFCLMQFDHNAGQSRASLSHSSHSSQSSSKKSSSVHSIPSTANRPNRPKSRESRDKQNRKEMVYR

As to `CC(=O)[C@H]1CC[C@H]2[C@@H]3CCC4=CC(=O)CC[C@]4(C)[C@H]3CC[C@]12C` [PROG, Progesterone], the “increase of BK channel activity” value in assay [1] (10 µM, I/O patches, 30 μM free Ca2+) is ~ 3 fold. In assay [1] (wt mouse, PROG, time 1 (normalisation reference), columns = cell number), the “normalized NPo, time course Fig 5C” value came out at 1. In addition, the “action on channel activity (NPo)” value was “significantly activated” at cbv1+β1Y32F (10 µM, vs DMSO) and “significantly activated” at cbv1+β1Y42V (10 µM, vs DMSO). Moreover, the “channel activity (NPo) with prog, normalized” value at cbv1+β1Y32F (SFig3A, cbv1+y32f, individual bilayers) was 3.7931 and 1.379 and 2.626 and 0.9886 and 1.589; at cbv1+β1Y42V (SFig3A, cbv1+y42v, individual bilayers), 1.4717 and 1.041 and 1.9292 and 1.306 and 1.182. The binding result on β1Y42V is listed as “still bind PROG”. Also, the “effect on thermal unfolding / binding” value in assay [2] (4.1 μM) was “not destabilized”; in assay [2] (low concentrations (subμM)), “still destabilized”; at β1W87F, “loss of PROG binding”.

For the origin of these results see publication PMC10636063, “Progesterone activation of β1-containing BK channels involves two binding sites” (Nature Communications, 2023).
